From patent US20260070945A1, “MACROCYCLIC IMMUNOMODULATORS” (Bristol-Myers Squibb Company, priority 2022, published 2026) come the findings set out here.

Where a SMILES comes first, the peptide text is derived from it. Bridges are numbered along the chain shown (N, C = ends). [ ]: non-standard residue; d: D form. The star is where a group is joined. ξ: configuration not given here. Phe(4-CONH2) = NC(=O)c1ccc(C[C@H](N)C(=O)O)cc1; Phe(4-COOH) = N[C@@H](Cc1ccc(C(=O)O)cc1)C(=O)O; Bip = N[C@@H](Cc1ccc(-c2ccccc2)cc1)C(=O)O; Phe(4-CN) = N#Cc1ccc(C[C@H](N)C(=O)O)cc1; Phe(3-Me) = Cc1cccc(C[C@H](N)C(=O)O)c1; Val(3-OH) = CC(C)(O)[C@H](N)C(=O)O; hArg = N=C(N)NCCCC[C@H](N)C(=O)O; 4Pal = N[C@@H](Cc1ccncc1)C(=O)O; Cha = N[C@@H](CC1CCCCC1)C(=O)O; Cit = NC(=O)NCCC[C@H](N)C(=O)O; Ile(3ξ) = CCC(C)[C@H](N)C(=O)O; Thr(3ξ) = CC(O)[C@H](N)C(=O)O; Carboxymethyl = O=C(O)C*; NMeA = CN[C@@H](C)C(=O)O; Nle = CCCC[C@H](N)C(=O)O; Orn = NCCC[C@H](N)C(=O)O; Aun = NCCCCCCCCCCC(=O)O; Dab = NCC[C@H](N)C(=O)O; Dap = NC[C@H](N)C(=O)O; AEEA = NCCOCCOCC(=O)O

In general, IC50 refers to the point on the concentration scale where inhibition reaches its midpoint.

The target of the first experiment is T1, PD-1/PD-L1 interaction (PE-labeled human PD-L1-Ig binding to Jurkat cell line over-expressing human PD-1) (Homo sapiens, UniProt Q15116).
T1 construct: expressed in transfected cells; host or cells: Jurkat
T1 sequence (Q15116 25-288): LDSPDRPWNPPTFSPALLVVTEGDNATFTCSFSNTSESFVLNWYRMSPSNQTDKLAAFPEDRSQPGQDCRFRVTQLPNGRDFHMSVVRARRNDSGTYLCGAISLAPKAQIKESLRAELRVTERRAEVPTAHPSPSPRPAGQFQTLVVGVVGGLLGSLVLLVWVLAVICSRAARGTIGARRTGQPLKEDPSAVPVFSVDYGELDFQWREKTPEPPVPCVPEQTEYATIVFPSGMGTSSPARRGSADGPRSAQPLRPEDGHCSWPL
Briefly: Jurkat-PD-1 Cell Binding High-Content Screening Assay (CBA). Conditions: Jurkat-hPD-1 cells, PE-labeled PD-L1-Ig 20 nM final; read-out: Jurkat HPD1 PDL1 IC50. Put shortly:
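Binding of 20 nM (final) PE-tagged PD-L1-Ig to compound-pretreated Jurkat-hPD-1 cells was measured by high-content imaging after 1 h. Pretreatment ran 2 h at 37 °C in DMEM with 10% fetal calf serum.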
`Cc1cccc(C[C@@H]2NC(=O)[C@H](CC(=O)O)NC(=O)[C@H](Cc3ccc(C(=O)O)cc3)NC(=O)[C@H](Cc3ccc(OCC(=O)O)cc3)NC(=O)CSC[C@@H](C(=O)NCCCCCCCCCCC(=O)O)NC(=O)[C@H](CO)NC(=O)[C@H](C(C)C)NC(=O)[C@H](CC(C)C)NC(=O)[C@H](CC(N)=O)NC(=O)[C@@H](CC(C)C)NC(=O)[C@H](C)N(C)C(=O)[C@H](C(C)C)NC(=O)[C@H](Cc3ccc(-c4ccccc4)cc3)NC(=O)[C@H](CC(C)C)NC2=O)c1` [Example 1007] ({CH2CO}-Y(Carboxymethyl)[Phe(4-COOH)]D[Phe(3-Me)]L[Bip]V[NMeA][dL]NLVSC[Aun]-OH; thioether N-14): the 50% inhibitory concentration (IC50) was 111 nM.
Same read-out and setting: the figure for `CCC(C)[C@@H]1NC(=O)[C@H](Cc2ccc(-c3ccccc3)cc2)NC(=O)[C@H](CC(C)C)NC(=O)[C@H](Cc2cccc(C)c2)NC(=O)[C@H](CC(=O)O)NC(=O)[C@H](Cc2ccc(O)cc2)NC(=O)[C@H](Cc2ccncc2)NC(=O)CSC[C@@H](C(=O)N[C@@H](CCN)C(=O)NCCCCCCCCCCC(=O)O)NC(=O)[C@H](CCCCN)NC(=O)[C@H](C(C)C)NC(=O)[C@H](CC(C)C)NC(=O)[C@H](CCN)NC(=O)[C@@H](C)NC(=O)[C@H](C)N(C)C1=O` (stereo partly drawn) [Example 2200] ({CH2CO}-[4Pal]YD[Phe(3-Me)]L[Bip][Ile(3ξ)][NMeA][dA][Dab]LVKC[Dab][Aun]-OH; thioether N-14) is 20.6 nM; for `Cc1cccc(C[C@@H]2NC(=O)[C@H](CC(=O)O)NC(=O)[C@H](Cc3ccc(C(=O)O)cc3)NC(=O)[C@H](Cc3ccc(C#N)cc3)NC(=O)CSC[C@@H](C(=O)N[C@@H](CCN)C(=O)NCCCCCCCCCCC(=O)O)NC(=O)[C@H](CO)NC(=O)[C@H](C(C)(C)O)NC(=O)[C@H](CC3CCCCC3)NC(=O)[C@H](CCN)NC(=O)[C@@H](CC(C)C)NC(=O)[C@H](C)N(C)C(=O)[C@H](Cc3ccc(OCC(=O)O)cc3)NC(=O)[C@H](Cc3ccc(-c4ccccc4)cc3)NC(=O)[C@H](Cc3ccc(OCC(=O)O)cc3)NC2=O)c1` [Example 1002] ({CH2CO}-[Phe(4-CN)][Phe(4-COOH)]D[Phe(3-Me)]Y(Carboxymethyl)[Bip]Y(Carboxymethyl)[NMeA][dL][Dab][Cha][Val(3-OH)]SC[Dab][Aun]-OH; thioether N-14) it is 11 nM.
Same read-out and setting: the value for `CCC(C)[C@@H]1NC(=O)[C@H](Cc2ccc(-c3ccccc3)cc2)NC(=O)[C@H](CC(C)C)NC(=O)[C@H](Cc2c[nH]c3ccccc23)NC(=O)[C@H](CC(=O)O)NC(=O)[C@H](Cc2ccc(OCC(=O)O)cc2)NC(=O)[C@H](CCCCNC(=N)N)NC(=O)CSC[C@@H](C(=O)N[C@@H](CCN)C(=O)NCCOCCOCC(=O)NCCCCCCCCCCC(=O)O)NC(=O)[C@H](CCCCN)NC(=O)[C@H](C(C)C)NC(=O)[C@H](CC2CCCCC2)NC(=O)[C@H](CCN)NC(=O)[C@H]2CCCN2C(=O)[C@H](C)N(C)C1=O` (stereo partly drawn) [Example 2206] ({CH2CO}-[hArg]Y(Carboxymethyl)DWL[Bip][Ile(3ξ)][NMeA][dP][Dab][Cha]VKC[Dab][AEEA][Aun]-OH; thioether N-14) was 83.7 nM; that for `Cc1cccc(C[C@@H]2NC(=O)[C@H](CC(=O)O)NC(=O)[C@H](Cc3ccc(OCC(=O)O)cc3)NC(=O)[C@H](CCCNC(=N)N)NC(=O)CSC[C@@H](C(=O)N[C@@H](CCN)C(=O)NCCCCCCCCCCC(=O)O)NC(=O)[C@H]([C@@H](C)O)NC(=O)[C@H](C(C)C)NC(=O)[C@H](CC3CCCCC3)NC(=O)[C@H](CCN)NC(=O)[C@@H](CC(C)C)NC(=O)[C@H](C)N(C)C(=O)[C@H](CCCNC(N)=O)NC(=O)[C@H](Cc3ccc(-c4ccccc4)cc3)NC(=O)[C@H](Cc3ccc(O)cc3)NC2=O)c1` [Example 1355] ({CH2CO}-RY(Carboxymethyl)D[Phe(3-Me)]Y[Bip][Cit][NMeA][dL][Dab][Cha]VTC[Dab][Aun]-OH; thioether N-14) was 5.1 nM.
For the compound `CCC(C)[C@@H]1NC(=O)[C@H](Cc2ccc(-c3ccccc3)cc2)NC(=O)[C@H](CC(C)C)NC(=O)[C@H](Cc2c[nH]c3ccccc23)NC(=O)[C@H](CC(=O)O)NC(=O)[C@H](Cc2ccc(C(=O)O)cc2)NC(=O)[C@H](Cc2ccc(OCC(=O)O)cc2)NC(=O)CSC[C@@H](C(=O)N[C@@H](CCN)C(=O)NCCOCCOCC(=O)NCCCCCCCCCCC(=O)O)NC(=O)[C@H](CCC(=O)O)NC(=O)[C@H](C(C)(C)O)NC(=O)[C@H](CC2CCCCC2)NC(=O)[C@H](CCN)NC(=O)[C@@H](CC(C)C)NC(=O)[C@H](C)N(C)C1=O` (stereo partly drawn) [Example 1414] ({CH2CO}-Y(Carboxymethyl)[Phe(4-COOH)]DWL[Bip][Ile(3ξ)][NMeA][dL][Dab][Cha][Val(3-OH)]EC[Dab][AEEA][Aun]-OH; thioether N-14), the half-inhibitory concentration (IC50) was 3 nM.
On to `Cc1cccc(C[C@@H]2NC(=O)[C@H](CC(=O)O)NC(=O)[C@H](Cc3ccc(OCC(=O)O)cc3)NC(=O)[C@H](Cc3ccc(OCC(=O)O)cc3)NC(=O)CSC[C@@H](C(=O)N[C@@H](CO)C(=O)NCCCCCCCCCCC(=O)O)NC(=O)[C@H](C(C)O)NC(=O)[C@H](C(C)O)NC(=O)[C@H](CC3CCCCC3)NC(=O)[C@H](CCN)NC(=O)[C@@H](CC(C)C)NC(=O)[C@H](C)N(C)C(=O)[C@H](CCCNC(=N)N)NC(=O)[C@H](Cc3ccc(-c4ccccc4)cc3)NC(=O)[C@H](C(C)C)NC2=O)c1` (stereo partly drawn) [Example 2383] ({CH2CO}-Y(Carboxymethyl)Y(Carboxymethyl)D[Phe(3-Me)]V[Bip]R[NMeA][dL][Dab][Cha][Thr(3ξ)][Thr(3ξ)]CS[Aun]-OH; thioether N-14), for which the IC50 turned out to be 15.3 nM.
As to `Cc1cccc(C[C@@H]2NC(=O)[C@H](CC(=O)O)NC(=O)[C@H](Cc3ccc(OCC(=O)O)cc3)NC(=O)[C@H](Cc3ccc(OCC(=O)O)cc3)NC(=O)CSC[C@@H](C(=O)N[C@@H](CCCCN)C(=O)NCCCCCCCCCCC(=O)O)NC(=O)[C@H](CN)NC(=O)[C@H](C(C)C)NC(=O)[C@H](CC3CCCCC3)NC(=O)[C@H](CCN)NC(=O)[C@@H](CC(C)C)NC(=O)[C@H](C)N(C)C(=O)[C@H](C(C)C)NC(=O)[C@H](Cc3ccc(-c4ccccc4)cc3)NC(=O)[C@H](C(C)C)NC2=O)c1` [Example 2376] ({CH2CO}-Y(Carboxymethyl)Y(Carboxymethyl)D[Phe(3-Me)]V[Bip]V[NMeA][dL][Dab][Cha]V[Dap]CK[Aun]-OH; thioether N-14), the IC50 is 20.9 nM.
In the case of `CC(C)C[C@@H]1NC(=O)[C@H](Cc2c[nH]c3ccccc23)NC(=O)[C@H](CC(=O)O)NC(=O)[C@H](Cc2ccc(C(=O)O)cc2)NC(=O)[C@H](Cc2ccc(OCC(=O)O)cc2)NC(=O)CSC[C@@H](C(=O)N[C@@H](CCCN)C(=O)NCCOCCOCC(=O)NCCCCCCCCCCC(=O)O)NC(=O)[C@H](CN)NC(=O)[C@H](C(C)C)NC(=O)[C@H](CC2CCCCC2)NC(=O)[C@H](CC(N)=O)NC(=O)[C@@H](CC(C)C)NC(=O)[C@H](C)N(C)C(=O)[C@H](C(C)C)NC(=O)[C@H](Cc2ccc(-c3ccccc3)cc2)NC1=O` [Example 2143] ({CH2CO}-Y(Carboxymethyl)[Phe(4-COOH)]DWL[Bip]V[NMeA][dL]N[Cha]V[Dap]C[Orn][AEEA][Aun]-OH; thioether N-14), the concentration for half-maximal inhibition (IC50) amounted to 61.3 nM.

The experiment is the same for the next values; noted with them: PE-labeled PD-L1-Ig 20 nM final, Jurkat-hPD-1 cells; read-out: Jurkat HPD1 PDL1 IC50.
As for `CC(=O)NCCCC[C@@H]1NC(=O)[C@H](C(C)O)NC(=O)[C@H](CC2CCCCC2)NC(=O)[C@H](CCN)NC(=O)[C@@H](CC(C)C)NC(=O)[C@H](C)N(C)C(=O)[C@H](CCC(=O)O)NC(=O)[C@H](Cc2ccc(-c3ccccc3)cc2)NC(=O)[C@H](Cc2ccc(C(N)=O)cc2)NC(=O)[C@H](Cc2cccc(C)c2)NC(=O)[C@H](CC(=O)O)NC(=O)[C@H](Cc2ccc(C(=O)O)cc2)NC(=O)[C@H](Cc2ccc(OCC(=O)O)cc2)NC(=O)CSC[C@@H](C(=O)N[C@@H](CCN)C(=O)NCCOCCOCC(=O)NCCCCCCCCCCC(=O)O)NC1=O` (stereo partly drawn) [Example 2534] ({CH2CO}-Y(Carboxymethyl)[Phe(4-COOH)]D[Phe(3-Me)][Phe(4-CONH2)][Bip]E[NMeA][dL][Dab][Cha][Thr(3ξ)]K(Ac)C[Dab][AEEA][Aun]-OH; thioether N-14), the IC50 was 1.7 nM.
On to `Cc1cccc(C[C@@H]2NC(=O)[C@H](CC(=O)O)NC(=O)[C@H](Cc3ccc(C(=O)O)cc3)NC(=O)[C@H](C(C)O)NC(=O)CSC[C@@H](C(=O)N[C@@H](CCN)C(=O)NCCOCCOCC(=O)NCCOCCOCC(=O)NCCCCCCCCCCC(=O)O)NC(=O)[C@H](CO)NC(=O)[C@H](C(C)(C)O)NC(=O)[C@H](CC3CCCCC3)NC(=O)[C@H](CCN)NC(=O)[C@@H](CC(C)C)NC(=O)[C@H](C)N(C)C(=O)[C@H](Cc3ccc(C(=O)O)cc3)NC(=O)[C@H](Cc3ccc(-c4ccccc4)cc3)NC(=O)[C@H](Cc3ccc(C(=O)O)cc3)NC2=O)c1` (stereo partly drawn) [Example 2527] ({CH2CO}-[Thr(3ξ)][Phe(4-COOH)]D[Phe(3-Me)][Phe(4-COOH)][Bip][Phe(4-COOH)][NMeA][dL][Dab][Cha][Val(3-OH)]SC[Dab][AEEA][AEEA][Aun]-OH; thioether N-14), for which the IC50 came to 1.8 nM.
For `CCCC[C@@H]1NC(=O)CSC[C@@H](C(=O)N[C@@H](CCN)C(=O)NCCOCCOCC(=O)NCCCCCCCCCCC(=O)O)NC(=O)[C@H](CCC(=O)O)NC(=O)[C@H](C(C)C)NC(=O)[C@H](CC2CCCCC2)NC(=O)[C@H](CCN)NC(=O)[C@@H](CC(C)C)NC(=O)[C@H](C)N(C)C(=O)[C@H](Cc2ccc(C(=O)O)cc2)NC(=O)[C@H](Cc2ccc(-c3ccccc3)cc2)NC(=O)[C@H](Cc2ccc(C(=O)O)cc2)NC(=O)[C@H](Cc2cccc(C)c2)NC(=O)[C@H](CC(=O)O)NC(=O)[C@H](Cc2ccc(C(=O)O)cc2)NC1=O` [Example 2549] ({CH2CO}-[Nle][Phe(4-COOH)]D[Phe(3-Me)][Phe(4-COOH)][Bip][Phe(4-COOH)][NMeA][dL][Dab][Cha]VEC[Dab][AEEA][Aun]-OH; thioether N-14), the IC50 is 5.4 nM.
